# Data from publication PMC6767236, “Selective Cannabinoid 2 Receptor Agonists as Potential Therapeutic Drugs for the Treatment of Endotoxin-Induced Uveitis” (Molecules, 2019).
# Read-outs that look alike come from different tables or passages of the source.
# Key:
# [1] = parameters: method as in earlier work; settings: mouse, i.v., 0.5-1 mg/kg; * previously published; cited from earlier work
# [2] = molecular target: CYP2C9 (Homo sapiens, UniProt P11712); experiment: Cytochrome P450 inhibition assay, CYP2C9; assay type: in vitro ADME; settings: read-out: IC50 CYP2C9
# [3] = Saturation (thermodynamic) solubility in buffer, FaSSIF, FeSSIF; assay type: physicochemical; settings: thermodynamic from solid
# Protocol: (§1) Saturation Solubility (= Thermodynamic Solubility)
# (§2) Approximately 8.6 mg test compound per milliliter solvent/vehicle was stirred in HPLC vials (9 × 12 × 32 mm, Waters) at 350 rpm for 15 h. Samples of 10 µL each were taken and microscopically examined for presence of solid particles. If the active pharmacological ingredient (API) dissolved completely, more solid API was added, and stirring was continued for another 15 h. Addition of solid material was repeated up to 96 h or until residual solid particles could be detected. Samples of 0.5 mL were then transferred to Eppendorf Ultrafree filter tubes (Filter: PVDF 0.22 µm) and centrifuged at 14,500 rpm for 10 min. The filtrates were diluted in ethanol and analyzed for content by UPLC. The measurements were also conducted in 0.05 M aqueous phosphate buffer, fasted (FaSSIF), and fed (FeSSIF) simulated gastrointestinal fluid. […]
# [4] = system: leukocyte-endothelial interactions in the iridial microcirculation; experiment: Endotoxin-induced uveitis (EIU), intravital microscopy of iridial microcirculation, WT mice; assay type: in vivo, BALB/c mice; settings: WT mice
# Protocol: EIU was induced in BALB/c mice using an intravitreal injection of LPS (2 μL; 125 ng/μL; E. coli 0111:B4 L084M4118V; Sigma-Aldrich, Oakville, ON, Canada) in saline,. Animals were anesthetized with isoflurane (4% induction, 2% maintenance), and were injected intravitreally through the pars plana with sterile saline (control) or LPS solution using a 30G needle and Hamilton syringe (Hamilton Company, Reno, NV, USA) with the assistance of a WILD M37 dissecting microscope (Leitz Canada, Kitchener, ON, Canada). The puncture wound was glued shut with 3M Vetbond Tissue Adhesive (3M Animal Products, St. Paul, MN, USA), and animals were allowed to recover.
# IVM was conducted as previously described in Toguri et al. (2014). The iridial microcirculation was imaged 6 h after induction of EIU. Animals were anesthetized with pentobarbital (i.p., 54 mg/kg). Fifteen minutes before initiating IVM, 0.05% Rhodamine 6G (1.5 mL/kg; Sigma-Aldrich) was injected intravenously (i.v.) to visualize leukocytes within the vasculature, while 5% fluorescein isothiocyanate (FITC) conjugated albumin (i.v., 1 mL/kg; Sigma-Aldrich) was used to visualize blood flow. The iridial microcirculation was observed using an Olympus OV100 Small Animal Imaging System (Olympus, Tokyo, Japan), which contains an MT-20 light source, fluorescence excitation from a xenon lamp (150 W) and an excitation filter for rhodamine-6G (excitation 515–560 nm, emission 590 nm). Images were captured in real-time by a black and white DP70 CCD C-mount camera and digitally recorded using HCImage software (Hamamatsu, Herrsching, Germany).
# During IVM animals were placed on a heating pad in a stereotactic frame, and Tear-Gel® (Novartis Pharmaceuticals Canada Inc., Dorval, QC, Canada) was applied to their cornea. The iris was divided into four equal quadrants by drawing two superficial lines on the cornea, lengthwise and widthwise. IVM was carried out in each of these quadrants. Two to four videos of each quadrant were recorded for 30 s each. Videos were analyzed off-line without knowledge of the treatment groups. […] Using ImageJ software (National Institute of Health, Bethesda, MD, USA) the number of adherent leukocytes within each vessel segment was calculated by measuring the diameter and length of vessel segment studied, assuming a cylindrical geometry of blood vessels. Adherent leukocytes were expressed as number of cells per mm^2 of endothelial surface. Rolling leukocytes were classified as cells that moved along the endothelium and crossed a predetermined cross-sectional line of the venule. The number of rolling leukocytes was counted for 30 s and used to calculate the number of rolling leukocytes per min. IVM was conducted 6 h after induction of EIU.
# RO6871304, RO6871085, or RO6851228 were applied topically on the left eye (1.5% w/v; 5 μL/animal)) directly after injection of LPS in the same eye. Control animals received vehicle (Tocrisolve) (5 μL/animal) only. HU910 was dissolved for i.v. administration in mixed micelles.
# [5] = human hepatocytes; * previously published; cited from earlier work
# [6] = Protocol: The GSH adduct formation test aims for the identification of molecules which bear the risk of forming reactive metabolites that might trigger drug-induced liver injury and drug-induced hypersensitivity reactions in patients. The compounds are incubated with liver microsomes to assess reactive metabolite formation. Glutathione is added as a nucleophile to convert eventually formed reactive species into a stable conjugate that can be analyzed by mass spectrometry. Details on the assay have been reported in Brink et al. (2014). […]
# [7] = Saturation solubility in selected solvents/vehicles; assay type: physicochemical; settings: for solubility: thermodynamic from solid
# Protocol: as §1, §2
# [8] = molecular target: mouse CB2R (Mus musculus, UniProt P47936); experiment: cAMP assay, mouse CB2R (mouse spleen homogenate); assay type: biochemical
# Protocol: The effect of ligands on the forskolin-stimulated accumulation of cAMP was determined using the LANCE ULTRA cAMP kit as per the manufacturer’s instruction (Perkin-Elmer Life Sciences, Boston, MA, USA).
# For mouse CB2R cAMP assays, mouse spleen was resuspended in 50 mM of Tris-HCl (pH 7.4), then homogenized with a Potter homogenizer and centrifuged at 1000× g for 10 min. The supernatants were incubated for 30 min with 1-methyl-3-isobutylxanthine (IBMX), then forskolin was added in the presence or absence of ligands. The supernatants were incubated for 30 min in ATP Regeneration Buffer (50 mM HEPES, pH 7.4, 10 mM phosphocreatine, 10 units/mL creatine phosphokinase, 10 μM GTP, 200 μM ATP, 10 mM MgCl2, 250 μM IBMX), and the reaction was stopped by adding lysis buffer. Time-resolved fluorescence was measured with a Victor V Multilabel counter (Perkin-Elmer Life Sciences, Boston, MA, USA).
# [9] = phosphate buffer pH 6.5; * previously published; cited from earlier work
# [10] = solubility sample, RO6871085 as hydrochloride salt
# Chain of mouse CB2R (P47936 whole entry): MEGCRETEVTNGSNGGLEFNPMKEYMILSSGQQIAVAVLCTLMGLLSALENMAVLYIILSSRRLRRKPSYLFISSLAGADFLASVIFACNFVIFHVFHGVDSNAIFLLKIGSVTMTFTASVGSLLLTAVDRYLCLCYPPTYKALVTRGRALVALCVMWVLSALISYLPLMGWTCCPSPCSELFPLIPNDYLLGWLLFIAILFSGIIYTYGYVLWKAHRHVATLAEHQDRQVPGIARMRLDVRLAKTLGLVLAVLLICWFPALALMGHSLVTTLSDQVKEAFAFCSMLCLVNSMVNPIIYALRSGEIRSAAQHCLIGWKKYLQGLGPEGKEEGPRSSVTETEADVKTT
# Chain of CYP2C9 (P11712 whole entry): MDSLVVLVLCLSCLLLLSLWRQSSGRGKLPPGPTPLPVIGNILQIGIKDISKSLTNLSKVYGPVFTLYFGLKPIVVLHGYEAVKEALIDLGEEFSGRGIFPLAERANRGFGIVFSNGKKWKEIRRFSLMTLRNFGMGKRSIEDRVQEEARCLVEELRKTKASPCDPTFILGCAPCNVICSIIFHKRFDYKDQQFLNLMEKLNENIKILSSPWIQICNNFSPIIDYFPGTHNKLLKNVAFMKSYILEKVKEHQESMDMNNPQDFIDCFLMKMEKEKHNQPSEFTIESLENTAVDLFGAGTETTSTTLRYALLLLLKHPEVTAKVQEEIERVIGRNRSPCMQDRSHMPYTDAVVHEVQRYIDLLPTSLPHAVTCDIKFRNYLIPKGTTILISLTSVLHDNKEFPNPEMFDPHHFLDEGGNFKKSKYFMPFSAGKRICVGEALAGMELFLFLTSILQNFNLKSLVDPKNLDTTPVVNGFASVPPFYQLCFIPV
structure (smiles),measurement,setting,value
"CCCCCCC(C)(C)c1cc(OC)c(C2=C[C@H]3CC[C@]2(CO)C3(C)C)c(OC)c1 [HU910, {(1S,4R)-2-[2,6-dimethoxy-4-(2-methyloctan-2-yl)phenyl]-7,7-dimethylbicyclo[2.2.1]hept-2-en-1-yl}methanol, reference compound]",AUCINF D,[1],6060 ng·kg·h/mL/mg
same,Clearance (CL),[1],2.8 mL/min/kg
same,T1/2,[1],7.4 h
same,Vss,[1],0.26 L/kg
same,IC50,[2],> 50000 nM
same,solubility thermodynamic,"[3]; FaSSIF pH 6.5, read-out: Thermodynamic Solubility in FaSSIF (pH 6.5)",59 µg/mL
same,solubility thermodynamic,"[3]; FeSSIF pH 5.5, read-out: Thermodynamic Solubility in FeSSIF (pH 5.5)",128 µg/mL
same,solubility thermodynamic,"[3]; aqueous phosphate buffer pH 6.5, read-out: Thermodynamic Solubility in Aqueous Buffer (pH 6.5)",< 1 µg/mL
same,adherent leukocytes in the iridial microcirculation,"[4]; 3.0 mg/kg i.v. in mixed micelles, 6 h after LPS, vs LPS + vehicle (p < 0.01)",significantly reduced leukocyte adhesion
same,adherent leukocytes in the iridial microcirculation,"[4]; topical 1.5% w/v (5 µL/animal), 6 h after intravitreal LPS, vs LPS + vehicle",significantly attenuated
same,Hepatocyte Clearance human,[5],9.2 μL/min/Mio cells
same,GSH Adduct Formation in Human Liver Microsomes,[6],no adduct
same,solubility in Tocrisolve 100,[7],good solvent
same,solubility,"[7]; aqueous with cosolvent or surfactant or cyclodextrin, in demin. water, n = 1, HU308 crystalline material, read-out: Solubility in HP-beta-CD 15%",320 µg/mL
same,solubility,"[7]; aqueous with cosolvent or surfactant or cyclodextrin, n = 1, RO6871085 as hydrochloride salt, HU308 crystalline material, > = saturation not achieved, read-out: Solubility in Tocrisolve",19200 µg/mL
same,time of stirring to full dissolution in Tocrisolve 100,[7]; data not shown,approximately 72 h
same,Solubility in PEG400 30%,"[7]; in demin. water, n = 1, HU308 crystalline material",< LOD
same,solubility,"[7]; oil or lipid, n = 1, RO6871085 as hydrochloride salt, HU308 crystalline material, > = saturation not achieved, read-out: Solubility in MCT (Miglyol 812)",> 87800 µg/mL
same,solubility,"[7]; pH 6, aqueous with cosolvent or surfactant or cyclodextrin, 200 mM glycocholic acid, 200 mM lecithin in water for injection, pH 6, n = 1, RO6871085 as hydrochloride salt, read-out: Solubility in Mixed Micelles",4400 µg/mL
same,pH of solution in HP-beta-CD 15%,[7]; solubility sample,6.2
same,pH of solution in PEG400 30%,[7]; solubility sample,6.0
same,pH of solution in Mixed Micelles,[7]; [10],6.2
same,pH of solution in Tocrisolve,[7]; [10],6.2
same,mouse CB2R: cAMP efficacy,[8],99%
same,EC50,[8]; read-out: mouse CB2R: cAMP EC50,3 nM
same,Kinetic Solubility,[9],< 0.5 µg/mL
